According to patent US5045566A, “Novel imidate insecticides” (ICI Americas Inc., priority 1989, dated 1991):

How the values were obtained:
Format in all cases: in vivo
[1] = system: Tobacco Budworm [Heliothis virescens (Fabricius)] eggs; test: Tobacco budworm eggs (TBW-E); details: percent in solution; 2-day old eggs
Outline: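 LC50 values (percent test compound in the dip solution) were calculated from dosage-mortality curves. Egg patches, 2 days old, were dipped in acetone solutions at concentrations from 0.1% downward and held at 78° F on rearing medium until control larvae hatched and fed.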

[2] = system: Cabbage Looper [Trichoplusia ni (Hubner)]; test: Cabbage looper leaf dip (CL), 3-5 days; details: percent in solution, second-instar larvae
Outline: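 Leaf dip, squash cotyledons, 50-50 acetone-water, top dose 0.1% and lower. 5 second-instar larvae/dish, moist filter paper, high-humidity chamber. Mortality at 3-5 d; LC50 (% in solution) from dosage-mortality curves.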

[3] = system: Housefly [Musca domestica]; test: Housefly contact mortality in dishes (HF), 48 hours; details: μg of test compound per 25 female flies
Outline: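 LC50 (μg compound per 25 female flies) derives from dosage-mortality curves of 48 h kill. Flies, females 1-2 days old, were held 25 per cage over a dish coated with dried acetone deposit, starting at 100 μg per cage and descending.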

[4] = system: Black Bean Aphid [Aphis fabae (Scop.)]; test: Black bean aphid spray test on nasturtium (BBA), 48 hours; details: percent of test compound in sprayed solution
Outline: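 LC50, given as percent test compound in the sprayed liquid, was calculated from dosage-mortality curves using concentrations from 0.05% downward. Sprays in 50:50 acetone-water went to runoff on ~5 cm nasturtiums carrying 25-50 aphids of mixed ages, one day after infestation. Deaths were counted 48 h later under greenhouse conditions.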

[5] = system: Aster Leafhopper [Macrosteles fascifrens (Stal)]; test: Aster leafhopper on dipped oat seedlings (LH), 48 hours; details: percent in solution, adults/nymphs
Procedure: The compounds in Tables 1 and 2 above were tested for insecticidal activity using the following testing procedures. LC50 values, based on the results of these tests and calculated according to dosage-mortality curves, are expressed in Table 3.
Aster Leafhopper [Macrosteles fascifrens (Stal)]
Oat seedlings (Avena sp) were grown in a commercial potting soil in cups. When the plants were approximately 10 cm tall they were thinned to three plants per cup and dipped for 2-3 seconds in 50-50 acetone-water solutions of the test compounds. When the plants had dried, a clear plastic tube was placed over them and the bottom end pressed into the cup. Ten aster leafhopper adults/nymphs were then placed in each tube and the tops of the tubes covered with white organdy cloth. Mortality counts were made after 48 hours. Test concentrations ranged from 0.05% down to that at which 50% mortality occurred. The LC50 values are expressed below in Table 3 under the heading "LH" in terms of the percent of the test compound in the solution.

| SMILES | LC50 TBW E (eggs) [1] [%] | LC50 CL [2] [%] | LC50 HF [3] [µg] | LC50 BBA [4] [%] | LC50 LH [5] [%] |
| --- | --- | --- | --- | --- | --- |
| Fc1ccc(N=C(OCc2cccc(Oc3ccccc3)c2)C(Cl)=C(Cl)Cl)cc1 [Compound 49] | > 0.05 | 0.007 | > 100 | 0.05 | > 0.05 |
| CC(C)C(=Nc1c(F)cc(F)cc1Br)OCc1cccc(Oc2ccccc2)c1 [Compound 129] | > 0.1 | 0.005 | > 100 | 0.03 | 0.01 |
| CC(C)CC(=Nc1cc(Cl)cc(Cl)c1)OCc1cccc(Oc2ccccc2)c1 [Compound 10] | > 0.1 | 0.01 | > 100 | 0.05 | > 0.05 |
| COc1ccc(OC)c(N=C(OCc2cccc(Oc3ccccc3)c2)C(C)C)c1 [Compound 69] | > 0.1 | 0.09 | > 100 | > 0.05 | > 0.05 |
| CCOC(=O)c1cc(N=C(OCc2cccc(Oc3ccccc3)c2)C(C)C)ccc1Cl [Compound 102] | > 0.1 | 0.075 | > 100 | 0.05 | > 0.05 |
| CCc1ccc(N=C(OCc2cccc(Oc3ccccc3)c2)C(C)C)cc1 [Compound 161] | 0.07 | 0.0014 | 15 | 0.0006 | 0.002 |
| CC(C)C(=Nc1c(F)c(F)cc(F)c1F)OCc1cccc(Oc2ccccc2)c1 [Compound 57] | 0.1 | 0.004 | > 100 | 0.03 | 0.0005 |
| CC(C)(Cl)C(=Nc1ccc(C#N)c(Cl)c1)OCc1cccc(Oc2ccccc2)c1 [Compound 108] | > 0.1 | 0.002 | 44 | 0.01 | > 0.01 |
| CCc1cccc(N=C(OCc2cccc(Oc3ccccc3)c2)C(C)(C)C)c1 [Compound 162] | > 0.1 | 0.035 | > 100 | > 0.05 | > 0.05 |
| CC(C)C(=Nc1ccc(OC(F)(F)F)cc1)OCc1cccc(Oc2ccccc2)c1 [Compound 70] | 0.01 | < 0.1 | < 100 | < 0.05 | > 0.05 |
| CC(C)C(=Nc1ccc(C(C)C)cc1)OCc1cccc(Oc2ccc(F)cc2)c1 [Compound 228] | > 0.1 | 0.0025 | > 100 | 0.01 | > 0.05 |
| Fc1ccc(Oc2cccc(COC(=Nc3ccc(F)c(Cl)c3)C(F)(F)C(F)(F)F)c2)cc1 [Compound 258] | > 0.1 | 0.003 | > 100 | 0.01 | > 0.05 |
| COc1c(Cl)cc(N=C(OCc2cccc(Oc3ccccc3)c2)C(C)C)cc1Cl [Compound 91] | > 0.01 | 0.002 | 37 | 0.001 | 0.003 |
| CC(C)C(=Nc1ccc2c(c1)CCC2)OCc1cccc(Oc2ccccc2)c1 [Compound 187] | > 0.1 | 0.0025 | 15 | 0.001 | 0.0025 |
| Clc1ccc(N=C(OCc2cccc(Oc3ccccc3)c2)C(Cl)Cl)c2ccccc12 [Compound 98] | 0.1 | 0.016 | > 100 | > 0.05 | > 0.05 |
| CC(C)C(=Nc1c(Cl)cc([N+](=O)[O-])cc1Cl)OCc1cccc(Oc2ccccc2)c1 [Compound 92] | > 0.1 | 0.015 | > 100 | > 0.05 | > 0.05 |
| CCc1ccc(N=C(OCc2cccc(Oc3ccc(F)cc3)c2)C(C)C)cc1 [Compound 159] | 0.08 | 0.001 | 25 | 0.001 | 0.0025 |
| Cc1c(Cl)cc(N=C(OCc2cccc(Oc3ccccc3)c2)C(C)C)cc1Cl [Compound 101] | > 0.1 | 0.0045 | 81 | 0.002 | 0.0008 |
| CC(C)C(=Nc1ccc(I)cc1)OCc1cccc(Oc2ccccc2)c1 [Compound 137] | 0.04 | 0.003 | 18 | 0.03 | 0.008 |
| CC(C)C(=Nc1ccc(Br)cc1)OCc1cccc(Oc2ccccc2)c1 [Compound 131] | > 0.1 | 0.0045 | 17 | 0.003 | 0.005 |
| CC(C)C(=Nc1cc(Cl)c(Cl)c(Cl)c1)OCc1cccc(Oc2ccccc2)c1 [Compound 20] | < 0.1 | 0.0025 | 64 | 0.0006 | 0.003 |
| CC(C)(C)C(=Nc1ccc(Br)cc1)OCc1cccc(Oc2ccccc2)c1 [Compound 135] | > 0.1 | 0.004 | > 100 | > 0.05 | > 0.05 |
| Cc1ccc(Oc2cccc(COC(=Nc3ccc(F)c(Cl)c3)C(C)C)c2)cc1 [Compound 225] | > 0.1 | 0.0025 | > 100 | 0.006 | > 0.05 |
| CC(C)C(=Nc1cc(Cl)cc(Cl)c1)OCc1cccc(Oc2ccccc2)c1 [Compound 16] | 0.04 | 0.004 | 20 | 0.0004 | 0.0005 |
| CC(C)C(=Nc1ccc(C(F)(F)F)c(Cl)c1)OCc1cccc(Oc2ccccc2)c1 [Compound 83] | > 0.1 | 0.007 | > 100 | 0.05 | > 0.05 |
| CC(C)C(=Nc1ccc2c(c1)OC(C)(C)O2)OCc1ccc(F)c(Oc2ccccc2)c1 [Compound 242] | > 0.1 | 0.00025 | < 100 | < 0.05 | > 0.05 |
